The record followed here is patent publication US20150080380A1, “Therapeutic Uses” (GLAXOSMITHKLINE INTELLECTUAL PROPERTY DEVELOPMENT LIMITED, priority 2012, published 2015).

For experiment [1], the system named is remyelination in cuprizone-induced demyelination. Put plainly: Mouse cuprizone-induced demyelination model (Black-gold II staining). The conditions noted are these: forebrain and hindbrain; for myelin staining intensity of corpus callosum (percentage of mean density of naïve control): vehicle 15.75%; for demyelination area, corpus callosum: vehicle 54.81%. In kind it is in vivo, C57BL/6 mice. The method, then:
The ability of the compound of Example 1 to enhance in vivo remyelination was determined with the mouse cuprizone-induced demyelination model.
The cuprizone model was conducted with the protocol as follows: the C57BL/6 mice at age of 8 weeks were fed with powder mouse food mixed freshly with 0.2% cuprizone (w/w) for 5 weeks to induce demyelination, then animals were allowed to recover (removal of cuprizone from the diet) and administrated with Example compound 1, at 0.3 mg/kg, 1 mg/kg, 3 mg/kg and 10 mg/kg body weight orally, b.i.d. for an additional 9 days prior to sacrifice. The brain samples were collected for assessment of myelination. The compound of Example 1 was formulated as a suspension using 1% aqueous methylcellulose as the vehicle.
Mice were deeply anesthetized and quickly perfused with 0.9% saline via the left cardiac ventricle to drain out blood. Whole brains were taken out and put into 15 ml tube with 4% paraformaldehyde (PFA) for post-fixation overnight, then soaked in 30% sucrose for 24-48 h to dehydrate. For frozen embedding, brains were immediately snap frozen in isopentane mixed with dry ice and then embedded in optimal cutting temperature solution (OCT). Whole brains were sectioned at coronal position from Bregma −2.46 mm to 1.18 mm according to mouse atlas by Paxinos and Franklin (The Mouse Brain in Stereotaxic Coordinates—3rd Edition) with cryostat (MICROM HM525) at a thickness of 30 μm. All sections were put into 96-well plate filled with anti-freezing solution [300 g sucrose dissolved in 500 ml 0.1 M PB solution (combine 11.505 g Na2HPO4 and 2.275 g NaH2PO4, dilute to 1 L with distilled water, adjust pH to 7.4) plus 300 ml Ethylene glycol and dilute to 1 L with distilled water]. For Black-gold II staining, 2 sections from forebrain around the bregma 0.86 mm and 2 sections from hindbrain around the bregma −1.58 mm for each mouse respectively were chosen according to mouse atlas by Paxinos and Franklin. Black-gold II staining for detection of myelination was performed according to a protocol adapted from the manufacturer (AG105, Millipore). Briefly, 2 free-floating sections from forebrain and 2 sections from hindbrain were rehydrated 2× in MilliQ water for 2 minutes each time and then stained in a 24-well plate with 0.3% Black-gold II solution at 60° C. for 20 minutes. The sections were monitored to determine the extent of staining. When the finest myelinated fibers were stained dark red to black, the staining process was stopped. The sections were then rinsed 2× in MilliQ water for 2 minutes each time. Then the sections were treated with Sodium thiosulfate solution (1%) for 6 minutes at 60° C. After rinsing in PBST (0.05% Triton X100 in PBS), sections were mounted on slides (Leica Microsystems Plus Slides) and further air-dried on 37° C. heating platform for 2-4 hours. The dehydrated slides were coverslipped with robotic coverslipper (CV5030, Leica). Stained slides were scanned by Scanscope (Aperio Technologies Inc.). Digital images of central corpus callosum or cortex close to cingulum were captured using ImageScope (Aperio Technologies Inc.) at the magnification of 20×.
Image-Pro 6.3 software (Media Cybernetics, Bethesda, Md. 20814 USA) was used for subsequent quantitative evaluation. Threshold was set to Black-gold II staining in each gated corpus callosum and held constant for images obtained at equal objectives and light intensities on slides that were processed. Two parameters were used here: area and IOD (Integrated Optical Density). For measurement of demyelination area, all digital images were set under the same colour range after converted to a greyscale value of 8. Demyelination area indicated by void of Black-gold staining and total area of central corpus callosum at 20× magnification were measured separately on each image. Mean demyelination area was calculated as: (demyelination area/total area of central corpus callosum)×100. […]

For a further experiment, the target named is T1, H3R (Rattus norvegicus, UniProt Q9QYN8).
T1 construct: endogenous in cells; host or cells: oligodendrocyte precursor cells (OPCs), untransfected
T1 sequence (Q9QYN8 whole entry): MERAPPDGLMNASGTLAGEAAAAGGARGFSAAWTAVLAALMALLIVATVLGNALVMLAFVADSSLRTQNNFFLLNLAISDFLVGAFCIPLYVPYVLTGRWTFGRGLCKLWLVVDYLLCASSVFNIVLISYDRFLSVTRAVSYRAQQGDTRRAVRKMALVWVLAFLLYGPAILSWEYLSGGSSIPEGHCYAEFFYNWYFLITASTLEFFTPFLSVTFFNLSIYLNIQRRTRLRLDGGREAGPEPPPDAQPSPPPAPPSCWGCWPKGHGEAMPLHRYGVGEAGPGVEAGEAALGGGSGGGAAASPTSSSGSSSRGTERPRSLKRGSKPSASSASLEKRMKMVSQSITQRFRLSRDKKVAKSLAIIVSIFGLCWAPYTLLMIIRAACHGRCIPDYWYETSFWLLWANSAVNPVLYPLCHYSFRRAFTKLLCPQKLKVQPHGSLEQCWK
Put plainly: Histamine H3R functional inverse agonist assay with OPCs (cAMP assay). In kind it is cell-based. The conditions noted are these: 30 nM to 3 µM compound, Forskolin 3 µM, absence of H3R agonist. The method, then:
Histamine receptor 3 (H3R), expressed on cell surface, is negatively coupled to adenylyl cyclase, which stimulates the formation of cyclic AMP (cAMP). In the absence of histamine, the constitutively active H3R would inhibit intracellular level of cAMP. Inverse agonists of H3R, which block constitutive activity of H3R, thus would raise the cAMP level. The ability of Example compound 2 to inhibit constitutive activity of H3R was determined in a cellular cAMP assay.
For each compound being assayed, OPCs were seeded in PO coated 96-well plate at a density of 20000 cells/well, and cultured in BDM with bFGF (10 ng/ml Petrotech) and PDGF (10 ng/ml Petrotech) for 24 hours. The cells were first treated with different concentration of example compound (30 nM to […]) for 30 minutes. Then the cells were stimulated with Forskolin ([…], Sigma) in the presence of the example compound for 15 minutes. The cAMP concentrations were measured by the cAMP Chemiluminescent Immunoassay Kit (Invitrogen, Cat. No. C10557). The cells were lysed with lysis buffer (60 μL, Invitrogen Kit reagent) at 37° C. for 30 minutes. […] Chemiluminescence signal was measured in a SpectraMax M5 Multi-Mode Microplate Readers (Molecular Devices) for 1 second per well.

For `O=C1CCCN1c1ccc(Oc2ccc3c(c2)CCN(C2CCC2)CC3)nc1` [Example compound 1, 1-{6-[(3-cyclobutyl-2,3,4,5-tetrahydro-1H-3-benzazepin-7-yl)oxy]-3-pyridinyl}-2-pyrrolidinone], the “myelin staining intensity of corpus callosum (percentage of mean density of naïve control)” value is on record as 18.61%±1.01% in experiment [1] (0.3 mg/kg orally b.i.d. 9 days); 22.00%±3.41% in experiment [1] (1 mg/kg orally b.i.d. 9 days); 28.32%±7.76% in experiment [1] (3 mg/kg orally b.i.d. 9 days); 26.36%±3.10% in experiment [1] (10 mg/kg orally b.i.d. 9 days, P<0.05). Also, the “demyelination area, corpus callosum” value was 46.82%±3.54% in experiment [1] (0.3 mg/kg orally b.i.d. 9 days); 38.45%±7.55% in experiment [1] (1 mg/kg orally b.i.d. 9 days); 41.22%±11.14% in experiment [1] (3 mg/kg orally b.i.d. 9 days); 27.62%±5.20% in experiment [1] (10 mg/kg orally b.i.d. 9 days, P<0.01).

For the compound `c1cc2c(cc1-c1noc(CC3CCN(C4CCC4)CC3)n1)OCO2` [Example compound 2, 3-(benzo[d][1,3]dioxol-5-yl)-5-((1-cyclobutylpiperidin-4-yl)methyl)-1,2,4-oxadiazole], the “Forskolin-stimulated cAMP level in primary OPCs” value at H3R was “increased”.
